Measurements reported in US20130149287A1, “Corticogenesis of Human Pluripotent Cells” (Cambridge Enterprise Limited, priority 2010, published 2013).
“Also recorded” adds a separate entry of the source.

How the values were obtained:
Format in all cases: cell-based, human
[1] = system: voltage-gated potassium channels; assay: Whole-cell patch-clamp recording of voltage-gated potassium currents in PSC-derived cortical neurons; conditions: step depolarizations from holding potential -80 mV to +40
AMPA receptor = assay: Whole cell patch-clamp recording of miniature excitatory post-synaptic currents (mEPSCs) in hESC/hiPSC-derived cortical neurons; conditions: hESC- and hiPSC-derived cortical neurons, cultures between days 45 and 100
From the text: […] Borosilicate glass electrodes (resistance 6-10 MΩ) were filled with an intracellular solution containing (in mM): 135 K-Gluconate, 7 NaCl, 10 Hepes, 2 Na2ATP, 0.3 Na2GTP, 2 MgCl2. Cells were viewed using a BW50WI microscope (Olympus) with infrared DIC optics. Recordings were made with a Multiclamp 700 A amplifier (Molecular Devices). Signals were filtered at 4 kHz, sampled at 20 kHz with 16-bit resolution, and analysed using Matlab (MathWorks).

gamma-secretase complex = assay: Sandwich ELISA of secreted Aβ40 and Aβ42 in DS cortical neuron culture supernatant under gamma-secretase inhibition; conditions: DS cortical neurons
Protocol: Quantification of secreted Aβ40 and Aβ42 was carried out by sandwich ELISA (Invitrogen) of 50 μl of cell culture supernatant from cultures of DS, iPS control and H9 hES cortical neurons. For quantification of water-soluble and insoluble Aβ peptides, water- and formic acid-soluble protein fractions from whole cell extracts of cortical cultures were prepared and levels of each peptide measured by ELISA (Invitrogen). Inhibition of gamma-secretase was carried out in DS cortical cultures by addition of DAPT (Calbiochem) every 48 hours from day 50 of differentiation onwards.

[2] = system: voltage-gated sodium channels
[3] = system: hESC and hiPSC cell lines; assay: Efficiency of cortical induction by percentage of Pax6-expressing cells, with or without retinoids; conditions: retinol acetate and all-trans retinol included together, with dual SMAD inhibition; two hESC and four iPSC lines
Protocol: hESCs or iPSCs were isolated from MEFs following dissociation to single cells with Accutase (Innovative Cell Technologies) by a 1 hr pre-plate on gelatin-coated dishes in hESC medium supplemented with 10 ng/ml FGF2 and 10 μM ROCK inhibitor (Calbiochem). The non-adherent pluripotent stem cells were harvested and plated on Matrigel (BD) coated 12-well plates in MEF-conditioned hESC medium with 10 ng/ml FGF2. Once the cell culture reached 95% confluence, neural induction was initiated by changing the culture medium to a culture medium that supports neural induction, neurogenesis and neuronal differentiation (referred to as 3N medium), a 1:1 mixture of N2- and B27-containing media. N2 medium: DMEM/F12, N2 (GIBCO), 5 μg/ml Insulin, 1 mM L-Glutamine, 100 μm non-essential amino acids, 100 μM 2-mercaptoethanol, 50 U/ml Penicillin and […] Streptomycin; B27 medium: Neurobasal (Invitrogen), B27 with vitamin A (GIBCO), 200 mM Glutamine, 50 U/ml Penicillin and […] Streptomycin. […] Cells were maintained in this medium for 8-11 days, during which time the efficiency of neural induction was monitored by the appearance of cells with characteristic neuroepithelial cell morphology. […] For quantifying numbers of cells expressing specific cortical neuronal markers, cell cultures were dissociated into single cells with Accutase and resuspended at a density of 100,000 cells/ml. […]

cortical rosettes = assay: Regional identity of early-stage cortical rosettes after hedgehog signalling agonist treatment

`Nc1ccncc1` [4-AP, 4-aminopyridine] was tested, and the “voltage-gated outward potassium current” value [1] was “blocks a fast-activating transient fraction of outward K current; also recorded: a transient component of which was blocked”.
In the case of `N#Cc1cc2[nH]c(=O)c(=O)[nH]c2cc1[N+](=O)[O-]` [CNQX], the “appearance of mEPSCs” value (AMPA receptor) is reported as “blocked the appearance of mEPSCs”.
With `C[C@H](NC(=O)Cc1cc(F)cc(F)c1)C(=O)N[C@H](C(=O)OC(C)(C)C)c1ccccc1` [DAPT] the “production/secretion of both Aβ peptides” value (gamma-secretase complex; longer term 21 day gamma-secretase inhibition) was “undetectable levels” and the “production of Aβ40 and Aβ42 (secreted)” value (gamma-secretase complex; short-term 4 day gamma-secretase inhibition) was “reduces production of both Aβ40 and Aβ42”.
In the case of `NC1=N[C@H](O)[C@H]2[C@H]3O[C@]4(O)O[C@@H]([C@@H](O)[C@@]2(N1)[C@@H]4O)[C@]3(O)CO` [TTX, tetrodotoxin], the “fast-activating and inactivating inward voltage-gated sodium currents” value [2] is reported as “completely blocked”.
In the case of `CC1=C(/C=C/C(C)=C/C=C/C(C)=C/CO)C(C)(C)CCC1` [all-trans retinol], the “cortical neural induction, Pax6 expression” value [3] is reported as “robust, efficient differentiation of all lines to cortical neural stem/progenitor cells, with almost all cells expressing Pax6”.
For `c1ccc2c(Oc3nc(Nc4ccc(N5CCOCC5)cc4)c4ncn(C5CCCCC5)c4n3)cccc2c1` [purapomorphine], the “effect on regional identity of cortical rosettes” value (cortical rosettes) was “ventralises the rosettes, resulting in the genesis of GAD67+ GABAergic interneurons”.
With retinol acetate the “cortical neural induction, Pax6 expression” value [3] was “robust, efficient differentiation of all lines to cortical neural stem/progenitor cells, with almost all cells expressing Pax6”.
